{"source": "patent US8501766B2", "about": "“Treatment of rheumatoid arthritis with a combination of laquinimod and methotrexate” (Teva Pharmaceutical Industries Ltd., priority 2010, dated 2013)", "type_in_all_cases": "in vivo, male DBA/1OlaHsd mice", "key": {"[1]": {"test_system": "semi-established type II collagen arthritis", "assay": "Histopathology of fore paws, hind paws and knees in mouse type II collagen arthritis", "conditions": "vs vehicle controls; for Paw histopathology, reduction of summed scores: 4 paws; for Six-joint mean histopathology, reduction of summed scores: four paws and two knees", "description": "Mice were terminated on day 34. […] Evaluation of serum anti-type II collagen antibody levels were also performed (groups 1-3, 6 and 8 only). All animals survived to study termination. • 8. On days 21-35, onset of arthritis occurred. Mice were weighed on arthritis days 18, 20, 22, 24, 26, 28, 30, 32, and prior to tissue collection on day 34 (final day). • 9. At necropsy, animals from all groups were bled via cardiac puncture for serum and terminated via cervical dislocation. Fore paws, hind paws and knees were removed and placed in 10% NBF. Whole blood was allowed to clot at room temperature for approximately 2 hours before being spun at 13,000 rpm for 8 minutes. • 10. Processing of Joints: Following 1-2 days in fixative and then 4-5 days in decalcifier, the joints were processed, embedded, sectioned and stained with toluidine blue and H&E (2 slides per animal). Only fore and hind paws and knees were processed initially (6 joints/mouse). • 11. Morphologic Pathology Methods: […] Hind paws, fore paws, and knees were embedded and sectioned in the frontal plane. Six joints from each animal were processed for histopathology elevation. • 12. Tissue Processing and Evaluation: • a. place joints in decalcifier, • b. trim joints, wash, process tissues, • c. embed joints, • d. section tissues, stain tissues, • e. histopathologic evaluation, and • f. data processing, QC, prepare graphs and report. Histopathologic Scoring Methods for Mouse Joints with Type II Collagen Arthritis When scoring paws or ankles from mice with lesions of type II collagen arthritis, severity of changes as well as number of individual joints affected must be considered. When only 1-3 joints of the paws or ankles out of a possibility of numerous metacarpal/metatarsal/digit or tarsal/tibiotarsal joints were affected, an arbitrary assignment of a maximum score of 1, 2 or 3 for parameters below (Tables 3-6) was given depending on severity of changes. If more than 3 joints were involved, the criteria below (Tables 3-6) were applied to the most severely affected/majority of joints. [table] [table] [table] [table] For each animal, the inflammation, pannus, cartilage damage and bone damage scores was determined for each of the 6 joints submitted. A sum total (all 6 joints) animal score and a six joint mean animal score was determined as well as sums and means for each of the individual parameters. Data were also expressed as means for paws (4 joints) or knees (2 joints). Parameters for the various groups are then compared to disease control animals. Clinical data for paw scores (means for animal) were analyzed by determining the area under the dosing curve (AUC) for study days 18-34. For calculation of AUC, the daily mean scores for each mouse were entered into Microsoft Excel and the area between the treatment days after the onset of disease to the final day was computed. Means for each group were determined and the percent inhibition from arthritis controls was calculated by comparing values for treated and normal animals."}, "[2]": {"test_system": "semi-established type II collagen arthritis", "assay": "35 day mouse semi-established type II collagen arthritis: body weight, disease incidence, clinical arthritis scores and AUC", "conditions": "for Reduction of clinical arthritis scores expressed as area under the curve (AUC): days 18-34; for Reduction of clinical arthritis scores expressed as area under the curve (AUC) / Daily clinical arthritis scores: vs vehicle controls", "description": "Mouse type II collagen arthritis is an art-recognized animal model for rheumatoid arthritis in humans (Bendele, 2001). […] Mice were terminated on day 34. […] Evaluation of serum anti-type II collagen antibody levels were also performed (groups 1-3, 6 and 8 only). All animals survived to study termination. • 1. […] Mice were anesthetized with Isoflurane and given 150 μl of Bovine Type II collagen in Freund's complete adjuvant injections (Sigma) containing bovine type II collagen (Elastin Products, Owensville, Mo.) (2 mg/ml) at the base of the tail (D0 and day 21). • 3. Mice were randomized by body weight into treatment groups on study day 18. • 4. MTX was provided by Bolder BioPATH, Inc. as a 1 mg/ml stock solution purchased from MWI and was prepared as a 0.05 mg/ml solution in 1% CMC for dosing at 10 ml/kg. • 5. All dose solutions were prepared to deliver at 10 ml/kg (0.3 ml/30 g) mouse. • 6. Treatment is initiated on study day 18 and continued once daily, every day (po, qd) according to Table 1. [table] • 7. During the period of treatment, clinical scores were given for each of the paws (right front, left front, right rear, left rear) according to Table 2. [table] • 8. On days 21-35, onset of arthritis occurred. Mice were weighed on arthritis days 18, 20, 22, 24, 26, 28, 30, 32, and prior to tissue collection on day 34 (final day). • 9. At necropsy, animals from all groups were bled via cardiac puncture for serum and terminated via cervical dislocation. Fore paws, hind paws and knees were removed and placed in 10% NBF. Whole blood was allowed to clot at room temperature for approximately 2 hours before being spun at 13,000 rpm for 8 minutes. • 10. Processing of Joints: Following 1-2 days in fixative and then 4-5 days in decalcifier, the joints were processed, embedded, sectioned and stained with toluidine blue and H&E (2 slides per animal). Only fore and hind paws and knees were processed initially (6 joints/mouse). • 11. Morphologic Pathology Methods: […] Hind paws, fore paws, and knees were embedded and sectioned in the frontal plane. Six joints from each animal were processed for histopathology elevation. • 12. Tissue Processing and Evaluation: • a. place joints in decalcifier, • b. trim joints, wash, process tissues, • c. embed joints, • d. section tissues, stain tissues, • e. histopathologic evaluation, and • f. data processing, QC, prepare graphs and report. Histopathologic Scoring Methods for Mouse Joints with Type II Collagen Arthritis Clinical data for paw scores (means for animal) were analyzed by determining the area under the dosing curve (AUC) for study days 18-34. For calculation of AUC, the daily mean scores for each mouse were entered into Microsoft Excel and the area between the treatment days after the onset of disease to the final day was computed. Means for each group were determined and the percent inhibition from arthritis controls was calculated by comparing values for treated and normal animals. […] Percent inhibition of clinical parameters and AUC is calculated using the following formula: % Inhibition=[…], where A=Mean Disease Control−Mean Normal • B=Mean Treated−Mean Normal Results"}, "[3]": {"test_system": "serum anti-type II collagen antibody", "assay": "Serum anti-type II collagen antibody levels in mouse type II collagen arthritis", "conditions": "vs vehicle controls", "quoted_text": "Mice were terminated on day 34. […] Evaluation of serum anti-type II collagen antibody levels were also performed (groups 1-3, 6 and 8 only). […] At necropsy, animals from all groups were bled via cardiac puncture for serum and terminated via cervical dislocation. […] Whole blood was allowed to clot at room temperature for approximately 2 hours before being spun at 13,000 rpm for 8 minutes. • 10. […] Histopathologic Scoring Methods for Mouse Joints with Type II Collagen Arthritis Serum analysis for anti-TTC levels was performed on mice from groups 1-3, 6, and 8 only."}}, "data": [{"smiles": "CCN(C(=O)c1c(O)c2c(Cl)cccc2n(C)c1=O)c1ccccc1", "note": "[Laquinimod]", "values": [{"measurement": "Paw histopathology, reduction of summed scores", "setting": "[1]; 1 mg/kg Laquinimod po QD", "value": 61, "unit": "%"}, {"measurement": "Six-joint mean histopathology, reduction of summed scores", "setting": "[1]; 1 mg/kg Laquinimod po QD", "value": 60, "unit": "%"}, {"measurement": "Reduction of knee cartilage damage", "setting": "[1]; 1 mg/kg Laquinimod po QD", "value": 62, "unit": "%"}, {"measurement": "Reduction of knee inflammation", "setting": "[1]; 1 mg/kg Laquinimod po QD", "value": 51, "unit": "%"}, {"measurement": "Reduction of knee pannus", "setting": "[1]; 1 mg/kg Laquinimod po QD", "value": 59, "unit": "%"}, {"measurement": "Reduction of summed knee scores", "setting": "[1]; 1 mg/kg Laquinimod po QD", "value": 57, "unit": "%"}, {"measurement": "Disease incidence", "setting": "[2]; 0.2 mg/kg Laquinimod po QD, by study day 28", "value": 100, "unit": "%"}, {"measurement": "Daily clinical arthritis scores prior to disease occurrence in the vehicle control group", "setting": "[2]; 0.2 mg/kg Laquinimod po QD, d23", "value": "significantly elevated"}, {"measurement": "Reduction of clinical arthritis scores expressed as area under the curve (AUC)", "setting": "[2]; 0.2 mg/kg Laquinimod po QD", "value": 32, "unit": "%"}, {"measurement": "Daily clinical arthritis scores", "setting": "[2]; 0.2 mg/kg Laquinimod po QD, significant d28-34", "value": "significantly reduced"}, {"measurement": "Disease incidence", "setting": "[2]; 1 mg/kg Laquinimod po QD, at study termination", "value": 90, "unit": "%"}, {"measurement": "Daily clinical arthritis scores prior to disease occurrence in the vehicle control group", "setting": "[2]; 1 mg/kg Laquinimod po QD, d22-24", "value": "significantly elevated"}, {"measurement": "Reduction of clinical arthritis scores expressed as area under the curve (AUC)", "setting": "[2]; 1 mg/kg Laquinimod po QD", "value": 52, "unit": "%"}, {"measurement": "Daily clinical arthritis scores", "setting": "[2]; 1 mg/kg Laquinimod po QD, significant d25-34", "value": "significantly reduced"}, {"measurement": "Disease incidence", "setting": "[2]; 5 mg/kg Laquinimod po QD", "value": 70, "unit": "%"}, {"measurement": "Daily clinical arthritis scores prior to disease occurrence in the vehicle control group", "setting": "[2]; 5 mg/kg Laquinimod po QD, d22-23", "value": "significantly elevated"}, {"measurement": "Reduction of clinical arthritis scores expressed as area under the curve (AUC)", "setting": "[2]; 5 mg/kg Laquinimod po QD", "value": 69, "unit": "%"}, {"measurement": "Daily clinical arthritis scores", "setting": "[2]; 5 mg/kg Laquinimod po QD, significant d24-34", "value": "significantly reduced"}, {"measurement": "Serum Anti-TTC level", "setting": "[3]; 5 mg/kg Laquinimod po QD", "value": "not significantly affected"}]}, {"smiles": "CN(Cc1cnc2nc(N)nc(N)c2n1)c1ccc(C(=O)N[C@@H](CCC(=O)O)C(=O)O)cc1", "note": "[MTX, Methotrexate]", "values": [{"measurement": "Paw histopathology, reduction of summed scores", "setting": "[1]; MTX 0.5 mg/kg po QD", "value": 46, "unit": "%"}, {"measurement": "Six-joint mean histopathology, reduction of summed scores", "setting": "[1]; MTX 0.5 mg/kg po QD", "value": 43, "unit": "%"}, {"measurement": "Disease incidence", "setting": "[2]; MTX 0.5 mg/kg po QD, at study termination", "value": 90, "unit": "%"}, {"measurement": "Reduction of clinical arthritis scores expressed as area under the curve (AUC)", "setting": "[2]; MTX 0.5 mg/kg po QD", "value": 50, "unit": "%"}, {"measurement": "Daily clinical arthritis scores", "setting": "[2]; MTX 0.5 mg/kg po QD, significant days 27-34", "value": "significantly reduced"}, {"measurement": "Serum Anti-TTC level", "setting": "[3]; MTX 0.5 mg/kg po QD", "value": "not significantly affected"}]}]}
